From patent US10597696B2, “Detection of Niemann-Pick disease comprising detection of lysozyme and cathepsins” (UNIVERSITY OF NOTRE DAME DU LAC, priority 2013, dated 2020)
Entries after “also recorded” stand apart in the source; their conditions may differ.

Assays:
[1] = tested on: Npc1^nih Npc1^−/− mouse liver; assay: Immunohistochemistry of liver sections after HPβCD; format: in vivo
Method: Mice were sacrificed by asphyxiation using CO2. The circulatory bed was washed with PBS (pH 7.4), and subsequently perfused with 10% neutral buffered formalin (˜4% formaldehyde). The organs (brain and liver) were surgically harvested and stored in 4% formaldehyde at room temperature (RT) until transfer to paraffin. Paraffin-embedded tissue sections (3-4 μm) were dewaxed in xylene and alcohol. For Ly-6G and calbindin staining, antigen retrieval was done by pre-incubating deparaffinized samples with 0.05% proteinase K (Dako, Germany) in 50 mM Tris-HCl (pH 7.5) for 8 min at RT. CTSS and lysozyme were retrieved by boiling the sections in acidic condition for 30 min. Sections were incubated with anti-Ly-6G (20 μg/ml), anti-calbindin (1:1000), anti-CTSS (20 μg/ml) or anti-lysozyme (1:20) overnight at 4° C. Reagents were prepared according to the manufacturer's instructions (Vector laboratories). The staining protocol was followed as described previously (19). The secondary antibody for neutrophil staining was biotinylated rabbit anti-rat IgG (mouse absorbed, Vector Laboratories) and for Purkinje neurons was biotinylated horse anti-mouse IgG (Vector Laboratories).
For fluorescence microscopy, FITC-conjugated IgG (MP Biomedicals, Solon, Ohio, USA) was the secondary antibody. Sections stained only with secondary antibodies served as controls. Brightfield images were acquired on a Nikon Olympus microscope, using a Nikon digital DS-Fi1-U2 camera controlled by NIS-Elements F3.0 Nikon software (all from Nikon Instruments INC, Tokyo, Japan). Images were visualized with A10 PL 10×/0.25, or a DPIan Apo 40×/1.00 oil-immersion or a DPIan Apo 100×/1.30 oil-immersion objective lens (Nikon). Fluorescence microscopy and digital image collection were performed using an Olympus IX inverted fluorescence microscope and a Photometrix cooled CCD camera (CH350/LCCD) driven by DeltaVision software from Applied Precision (Seattle, Wash., USA). DeltaVision software (softWoRx) was used to deconvolve these images. Images were visualized with 40× oil-immersion objective lens and are single optical sections. ImageJ (National Institute of Health, Bethesda, Md., USA) software was used to process and quantify the fluorescence intensity of CTSS and lysozyme.
Starting at P21 and once a week thereafter, Npc1^nih and Npc1^nmf164 mice were injected i.p with 20% 2-hydroxypropyl-beta-cyclodextrin (HPβCD, 4000 mg/Kg) prepared in 0.2% DMSO and 0.9% saline. Control mice received 0.2% DMSO in 0.9% saline. Blood was collected either via cheek bleed or terminal heart bleed from mice in EDTA tubes (BD Biosciences, San Jose, Calif., USA). Plasma was separated by centrifugation at 2500 rpm for 15 min and stored at −70° C. until used.

[2] = tested on: Npc1^nih mice; conditions: cited from earlier work
[3] = tested on: Npc1^pf/pf mice; conditions: weekly injections to Npc1^pf/pf mice, previous study; cited from earlier work
[4] = tested on: Npc1^nmf164 homozygous mutant mice; assay: Plasma lysozyme activity in HPβCD-treated Npc1^nmf164 mice; format: in vivo, mouse; conditions: once a week i.p. from age 21-27 days, plasma at 50-55 days, vs vehicle/untreated
[5] = tested on: Npc1^nih Npc1^−/− mouse liver; assay: qPCR of cathepsins, inflammation and fibrosis markers in liver after HPβCD; format: in vivo
Description: In mice, formalin fixed paraffin embedded tissue was sectioned (4-5 μm) and total RNA was isolated using RNeasy FFPE kit (Qiagen, Germantown, Md., USA) which included treatment with DNAse. Frozen human liver and cerebellum from 4 NPC patients and 4 age-, gender- and ethnicity-matched controls were obtained from the NICHD Brain and Tissue Bank for Developmental Disorders (University of Maryland, Baltimore, Md., USA), as approved by the Institutional Review Board (IRB), of the University of Notre Dame, Ind., USA (FWA 00002462). Total RNA was isolated using RNeasy kit (Qiagen, Germantown, Md., USA). Eluted RNA was further digested with RNase free DNaseI and re-purified using RNeasy column. The quality of RNA was checked using Bioanalyzer chip (Agilent Technologies, Santa Clara, Calif., USA) and quantity was determined using Nanodrop 2000 (Thermo Fisher Scientific, Waltham, Mass., USA). Quantitative PCR (qPCR) was performed using Power SYBR Green RNA-to-CT 1-Step Kit and an ABI Prism 7500 Fast real-time PCR system (Applied Biosystems, Grand Island, USA). Reaction was set in 20 μl using 100 nM primers and 5-100 ng total RNA as template. The thermal cycling parameters were as follows: step 1, 48° C. for 30 min; step 2, 95° C. for 10 min; step 3, 95° C. for 15 sec ° C.; step 4, 60° C. for 15 sec. Step 3-4 was repeated for 40 cycles followed by melt curve analysis. Specific amplification was validated by analysis of template titration, melt curves and agarose gel electrophoresis. In both mouse and human tissues, the mRNA levels were normalized to the housekeeping gene, Gapdh (Glyceraldehyde 3-phosphate dehydrogenase). Fold change was calculated by relative standard curve method after correcting PCR efficiency. In mice, the fold change in expression levels of different genes in Npc1^−/− was calculated relative to average levels of expression in Npc1^+/− mice. In human tissues, fold change in transcript expression in NPC liver and cerebellum was expressed relative to average expression in age-matched controls. Starting at P21 and once a week thereafter, Npc1^nih and Npc1^nmf164 mice were injected i.p with 20% 2-hydroxypropyl-beta-cyclodextrin (HPβCD, 4000 mg/Kg) prepared in 0.2% DMSO and 0.9% saline. Control mice received 0.2% DMSO in 0.9% saline. Blood was collected either via cheek bleed or terminal heart bleed from mice in EDTA tubes (BD Biosciences, San Jose, Calif., USA). Plasma was separated by centrifugation at 2500 rpm for 15 min and stored at −70° C. until used.

## CC(O)COC[C@H]1O[C@@H]2O[C@H]3[C@H](O)[C@@H](O)[C@@H](O[C@H]4[C@H](O)[C@@H](O)[C@@H](O[C@H]5[C@H](O)[C@@H](O)[C@@H](O[C@H]6[C@H](O)[C@@H](O)[C@@H](O[C@H]7[C@H](O)[C@@H](O)[C@@H](O[C@H]8[C@H](O)[C@@H](O)[C@@H](O[C@H]1[C@H](O)[C@H]2O)O[C@@H]8COCC(C)O)O[C@@H]7COCC(C)O)O[C@@H]6COCC(C)O)O[C@@H]5COCC(C)O)O[C@@H]4COCC(C)O)O[C@@H]3COCC(C)O (stereo partly drawn) [HPβCD, 2-hydroxypropyl-beta-cyclodextrin]
[1]; Npc1^−/− mice, anti-CTSS IHC
  CTSS accumulation in liver: dramatically reduced
  accumulation of foamy macrophages in liver: eliminated accumulation of foamy macrophages; also recorded: eliminated the foamy macrophages and CTSS staining
[1]; Npc1^−/− mice, anti-Ly-6G IHC, 50 and 80 days
  neutrophil clusters in liver: reduced neutrophil clusters; also recorded: barely detected
[1]; Npc1^−/− mice, anti-lysozyme staining
  macrophages containing lysozyme in liver: largely eliminated
[1]; animals treated with HPβCD, histochemistry
  hepatocyte architecture: decreased cytoplasmic staining with slight irregular plasma membrane
[2]; Npc1^−/− mice, Cluzeau et al., 2012
  Lgals3 and Ctsd transcripts: reduced
[2]; weekly injections to Npc1^nih, previous studies
  disease and survival: ameliorates the disease and extend the survival; also recorded: reduce disease and extend the survival
[3]
  disease status: improvement in disease status
[4]
  plasma lysozyme activity: significantly reduced; also recorded: rendered comparable to untreated wild type animals
[4]; listed as H∪CD
  plasma lysozyme activity: decrease
[5]; Npc1^−/− mice
  expression of Cd68 in liver: reduced to normal levels
  expression of Col1a in liver: anomalous reduction
  expression of Itgax in liver: reduced to normal levels
[5]; Npc1^−/− mice, late stages
  Lyz1 expression in liver: abrogated Lyz1 over expression; also recorded: restored lysozyme transcript and protein to normal levels
[5]; late stage Npc1^−/− mice
  expression of Ctss in liver: markedly reduced and equivalent to control mice
